Assay results reported in patent publication US7332631B2, “Fc receptor modulating compounds and compositions” (Trillium Therapeutics Inc., priority 2002, dated 2008).
Values joined by “and” are separate entries in the source; they are usually repeats but may differ in a detail not shown here. Equal values may be shown once. Read-outs that look alike come from different tables or passages of the source. Peptide text beside a SMILES is read from it. * marks the point of attachment. Cbz = O=C(OCc1ccccc1)*

Legend:
FcγRIIa = target: T1, FcγRIIa (Homo sapiens, UniProt P12318); test: FACS assay of activation of human platelets by heat aggregated IgG (HAGG), P-Selectin expression; format: cell-based; details: for % Inhibition of platelet Activation / inhibition at 500 µg/mL: primary screen, single concentration of inhibitor 500 μg/ml, HAGG 40 μg/ml, several values = repeat determinations; for inhibition at 500 µg/mL: read-out: % Inhibition of platelet Activation
T1 construct: endogenous in cells; host or cells: washed human platelets
T1 sequence (P12318 34-317): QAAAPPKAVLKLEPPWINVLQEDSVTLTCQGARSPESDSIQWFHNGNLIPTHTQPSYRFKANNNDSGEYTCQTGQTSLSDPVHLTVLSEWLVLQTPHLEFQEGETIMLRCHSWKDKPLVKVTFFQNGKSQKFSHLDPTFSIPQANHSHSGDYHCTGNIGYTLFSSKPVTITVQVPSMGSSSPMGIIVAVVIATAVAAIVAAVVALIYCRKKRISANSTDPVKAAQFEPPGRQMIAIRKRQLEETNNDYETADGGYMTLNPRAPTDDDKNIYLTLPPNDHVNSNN
Method: The compounds of Table 1 were screened in a FcγRIIa dependent platelet activation assay and/or aggregation assay where platelets are activated using heat aggregated human immunoglobulin G as an immune complex. Compounds inhibiting this process were then tested for specificity. Note that the platelets were used as the target as the only Fc receptor expressed on these cells is FcγRIIa. In addition, they are very difficult to inhibit and therefore this assists in identifying compounds with reasonable potency.
The compounds of the present invention were initially screened in a rapid FACS screening assay, measuring activation of human platelets by heat aggregated IgG. […] In addition, platelets are very sensitive to a range of stimuli and activate rapidly. Activation is measured by the appearance of the protein P-Selectin on the platelet membrane after exposure to various stimuli. The stimuli were heat aggregated with IgG and as specificity controls, collagen or thrombin.
Specifically, this assay utilises washed platelets and heat aggregated IgG (HAGG) as an immune complex (agonist) to activate and crosslink FcγRIIa. Because this is a primary screen a single concentration of small molecule inhibitor is added to the platelets (final concentration of 500 μg/ml) and allowed to incubate for 30 minutes. Heat Aggregated IgG (HAGG) (40 μg/ml) is then added to the platelets and allowed to incubate for 30 minutes. Paraformaldehyde is added to the platelets for 30 minutes prior to washing. Anti-P-Selectin (FITC conjugated) and Anti-CD41 (PE conjugated) are added and the platelets are then screened by FACS to detect expression of P-Selectin, a marker of platelet activation and CD41, which is expressed by all viable platelets.
In summary, for each compound tested the activity was measured as a function of inhibition of platelet activation and/or platelet aggregation as detailed above. Specificity is defined as specific inhibition of immune complex induced platelet activation but with no effect on arachidonic acid induced activation (and where tested no effect on thrombin, collagen or ADP induced activation).
The compounds were titrated and evaluated for capacity to prevent aggregated IgG induction of p-selectin expression as a measure of activation.

HSA-FcγRIIa = HSA-FcγRIIa (Homo sapiens, UniProt P02768+P12318); test: ELISA Inhibition Assay: inhibition of human IgG complex binding to plate-bound HSA-FcγRIIa; details: HSA-FcγRIIa 5 μg/ml on plate, human IgG complex 0.2 μg/ml
Method: The compounds may also be screened using an ELISA inhibition assay to detect the blockade of IgG interaction with FcγRIIa.
Compounds were also screened using an ELISA Inhibition Assay. Human Serum Albumin genetically fused to FcγRIIa (HSA-FcγRIIa) was bound to an ELISA plate at a concentration of 5 μg/ml. The small molecule inhibitors were titrated from a starting concentration of 5 mg/ml and allowed to incubate in the presence of the receptor. A human IgG complex (0.2 μg/ml) is then added to the plate and the extent of inhibition of IgG binding by the small molecule inhibitors was measured using HRP labelled anti-human antibody.

[1] = Solubility remark in the platelet activation screen; format: physicochemical; details: printed instead of a % inhibition value
[2] = in vitro testing, summary table, read-out: IC50 Platelet Inhibition
[3] = washed human platelets, HAGG as agonist, several values in a cell = repeat determinations, '(ICnn)' after a '<' bound = inhibition level at that concentration, read-out: Concentration at 50% inhibition of platelet activation by HAGG

Chain of HSA-FcγRIIa (P02768+P12318 fused): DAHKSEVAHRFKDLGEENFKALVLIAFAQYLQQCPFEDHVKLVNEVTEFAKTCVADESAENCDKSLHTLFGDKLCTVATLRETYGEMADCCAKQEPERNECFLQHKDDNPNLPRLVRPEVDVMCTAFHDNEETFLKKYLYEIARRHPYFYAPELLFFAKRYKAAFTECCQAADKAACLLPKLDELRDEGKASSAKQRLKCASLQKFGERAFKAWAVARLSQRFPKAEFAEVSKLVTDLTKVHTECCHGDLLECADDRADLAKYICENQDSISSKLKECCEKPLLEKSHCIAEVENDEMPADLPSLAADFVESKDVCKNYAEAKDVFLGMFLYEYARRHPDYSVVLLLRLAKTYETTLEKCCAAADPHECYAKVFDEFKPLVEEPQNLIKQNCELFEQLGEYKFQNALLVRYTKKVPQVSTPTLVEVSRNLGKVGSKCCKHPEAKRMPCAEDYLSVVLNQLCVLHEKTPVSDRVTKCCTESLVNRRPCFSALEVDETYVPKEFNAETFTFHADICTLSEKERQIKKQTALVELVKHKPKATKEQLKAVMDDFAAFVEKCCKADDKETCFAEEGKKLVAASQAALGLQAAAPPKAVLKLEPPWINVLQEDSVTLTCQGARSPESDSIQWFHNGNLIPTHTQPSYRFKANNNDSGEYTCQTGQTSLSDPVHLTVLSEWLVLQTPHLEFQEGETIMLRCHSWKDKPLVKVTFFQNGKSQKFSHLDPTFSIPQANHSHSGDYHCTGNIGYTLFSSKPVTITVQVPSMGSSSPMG

Row | IC50 (FcγRIIa; [2]) [µM] | IC50 (FcγRIIa; [3]) | IC50 (HSA-FcγRIIa) [µM] | Compound | further results
1 | 290 | 290 µM | 1300 | Cc1c(C(C)(C)C)cc(/C=C(\C#N)C(=O)O)cc1C(C)(C)C [Compound 350] | –
2 | 520 | 520 µM | 1600 | O=C(O)c1sc2ccccc2c1OCc1ccccc1 [Compound 333, 3-Benzyloxy-1-benzo[b]thiophene-2-carboxylic acid] | –
3 | – | – | – | CC(NC(=O)CNC(=O)CNC(=O)OCc1ccccc1)C(=O)O (stereo not drawn) [Compound 235] | % Inhibition of platelet Activation (FcγRIIa): 30% and 49% and 54%
4 | 50 | 50 µM | 6900 | O=C(O)c1ccc(C(=O)CSc2ccccc2C(=O)O)cc1 [Compound 410, 2-{[2-(4-carboxyphenyl)-2-oxoethyl]thio}benzoic acid] | –
5 | 520 | 520 µM | 5600 | O=C(O)c1cccc(C(=O)CSCC(=O)c2cccc(C(=O)O)c2)c1 [Compound 292, 1-(3-Carboxyphenyl)-2-[2-(3-carboxyphenyl)-2-oxoethylsulfanyl]ethanone] | –
6 | – | – | – | O=C(O)c1cccc(/C=N/c2cccc(C(=O)O)c2)c1 [Compound 076] | inhibition at 500 µg/mL (FcγRIIa): 13%
7 | 60 | 60 µM | 7000 | O=C(O)c1cccc(C(=O)CSc2ccccc2C(=O)O)c1 [Compound 412, 2-{[2-(3-carboxyphenyl)-2-oxoethyl]thio}benzoic add] | –
8 | 780 | 100 µM | 17500 | O=C(O)c1sc2cc([N+](=O)[O-])ccc2c1Cl [Compound 026, 3-Chloro-6-nitro-1-benzo[b]thiophene-2-carboxylic acid] | –
9 | 250 | 240 µM | 3000 | N#Cc1cccc(C(=O)CSc2cccc(C(=O)O)c2)c1 [Compound 216, 3-[2-(3-Cyanophenyl)-2-oxoethylsulfanyl]benzoic acid] | –
10 | – | 195 µM and 295 µM | – | COc1cccc2c(OC(C)C)c(C(=O)Nc3nnn[nH]3)sc12 [Compound 090, 3-isopropoxy-7-methoxy-N-(1H-1,2,3,4-tetrazol-5-yl)-1-benzo[b]thiophene-2-carboxamide] | –
11 | – | – | – | O=C(O)CCNC(=O)OCc1ccccc1 [Compound 233] | % Inhibition of platelet Activation (FcγRIIa): 74%
12 | – | 435 µM | – | COc1ccc2sc(C(=O)Nc3nnn[nH]3)c(OC(C)C)c2c1[N+](=O)[O-] [Compound 092, 3-isopropoxy-4-nitro-5-methoxy-N-(1H-1,2,3,4-tetrazol-5-yl)-1-benzo[b]thiophene-2-carboxamide] | melting point: 236 to 238 °C
13 | 280 | 280 µM | 1000 | C/C(=C(/S)C(=O)NCC(=O)O)c1cccc(O)c1 [Compound 383, [3-(3-Hydroxyphenyl)-2-mercaptobut-2-enoylamino]acetic add] | –
14 | 270 | 270 µM | 17500 | O=C(/C=C/c1ccccc1C(=O)O)c1ccc[nH]1 [Compound 238, 2-[3-Oxo-3-(1H-pyrrol-2-yl)propenyl]benzoic acid] | –
15 | – | – | – | O=C(O)CNC(=O)CNC(=O)OCc1ccccc1 [Compound 236] (Cbz-Gly-Gly-OH) | % Inhibition of platelet Activation (FcγRIIa): 34% and 33% and 65%
16 | – | – | – | O=C(O)c1cccc(/C=N/Nc2cc(Cl)cc(Cl)c2)c1 [Compound 080] | Solubility (word printed in the % inhibition column) [1]: Insoluble

Row | IC50 (FcγRIIa; [2]) [µM] | IC50 (FcγRIIa; [3]) | IC50 (HSA-FcγRIIa) [µM] | Compound | further results
17 | – | 230 µM | – | O=C(O)c1c(Cl)c2ccc([N+](=O)[O-])cc2[s+]1[O-] (stereo not drawn) [Compound 044, 3-Chloro-6-nitro-1-benzo[b]thiophene-S-oxo-2-carboxylic acid] | –
18 | – | – | – | O=C(O)c1cccc(/C=N/c2cc(C(=O)O)cc(C(=O)O)c2)c1 [Compound 114] | inhibition at 500 µg/mL (FcγRIIa): 8%
19 | 1300 | – | 9400 | O=C(O)CCCCCNC(=O)OCc1ccccc1 [Compound 197] | –
20 | 220 | – | 2000 | C/C(=C1\SC(=S)N(CC(=O)O)C1=O)c1cccc(O)c1 [Compound 374, 5-(-Methyl-3-hydroxybenzylidine)rhodanine-3-acetic acid] | –
21 | – | – | – | O=C(O)c1ccc(/C=N/c2cccc(C(=O)O)c2)cc1 [Compound 081] | inhibition at 500 µg/mL (FcγRIIa): 83%
22 | 320 | 360 µM and > 630 µM | 6100 | O=C(O)c1cccc(SCC(=O)c2cccc(C(=O)O)c2)c1 [Compound 217, 3-[2-Oxo-2-(3-carboxyphenyl)ethylsulfanyl]benzoic acid] | –
23 | – | – | – | O=C(O)c1cccc(/C=N/Nc2cccc(C(=O)O)c2)c1 [Compound 200] | % Inhibition of platelet Activation (FcγRIIa): 98% and 54% and 95%
24 | – | < 165 µM and 170 µM | – | COc1ccc2sc(C(=O)O)c(OC3CCCCC3)c2c1 [Compound 276, 3-Cyclohexyloxy-5-methoxy-1-benzo[b]thiophene-2-carboxylic acid] | melting point: 176 to 177 °C
25 | 330 | 330 µM | – | N#CCCCSc1cccc(C(=O)O)c1 [Compound 239, 3-(3-Cyanopropylsulfanyl)benzoic acid] | IC50 ELISA (HSA-FcγRIIa): -'ve
26 | 180 | 180 µM | 7800 | N#Cc1cccc(C(=O)CSc2ccccc2C(=O)O)c1 [Compound 411, 2-{[2-(3-cyanophenyl)-2-oxoethyl]thio}benzoic acid] | –
27 | 610 | 600 µM | 12200 | O=C(O)c1ccc2c(c1)C(=O)c1cc(C(=O)O)ccc1-2 [Compound 001] | –
28 | – | – | – | O=C(O)c1cccc(CNc2cccc(C(=O)O)c2)c1 [Compound 100] | inhibition at 500 µg/mL (FcγRIIa): 7%
29 | 40 | 40 µM | 6200 | O=C(O)c1ccc(C(=O)/C=C/c2ccccc2)cc1 [Compound 237, 4-[(2E)-3-phenylprop-2-enoyl]benzoic acid] | –
30 | – | 70 µM | 2800 | O=C(O)c1cccc([S+]([O-])c2cccc(C(=O)O)c2)c1 [Compound 032, 3-[(3-Carboxyphenyl)sulfinyl]benzenecarboxylic acid] | IC50 Platelet Inhibition (FcγRIIa; in vitro testing, summary table): -'ve
31 | – | – | – | O=C(Nc1cccc(C(=O)O)c1)Nc1cccc(C(=O)O)c1 [Compound 192] | % Inhibition of platelet Activation (FcγRIIa): 19%; inhibition at 500 µg/mL (FcγRIIa): 22%

Row | Compound | IC50 (FcγRIIa; [2]) [µM] | IC50 (FcγRIIa; [3]) | IC50 (HSA-FcγRIIa) [µM] | further results
32 | O=C(O)c1ccc(SCC(=O)c2ccccc2)cc1 [Compound 384, 4-[(2-oxo-2-phenylethyl)thio]benzoic acid] | 170 | 170 µM | 4800 | –
33 | O=C(O)c1cccc(SCC(=O)c2ccccc2)c1 [Compound 294] | 80 | < 190 µM and 135 µM and 155 µM and 80 µM | 6000 | –
34 | O=C(O)/C=C/c1ccc(OCCc2ccccc2)cc1 [Compound 299, 4-Phenethyloxycinnamic acid] | 410 | 410 µM | 7200 | –
35 | N#Cc1cccc(C(=O)CSc2ccc(C(=O)O)cc2)c1 [Compound 385, 4-{[2-(3-cyanophenyl)-2-oxoethyl]thio}benzoic acid] | 360 | 360 µM | 6800 | –
